Experimental data as given in ChEMBL document CHEMBL4177737, “Identification of bicyclic hexafluoroisopropyl alcohol sulfonamides as retinoic acid receptor-related orphan receptor gamma (RORγ/RORc) inverse agonists. Employing structure-based drug design to improve pregnane X receptor (PXR) selectivity” (Bioorg Med Chem Lett, 2018).
pEC50: −log10 of the molar value. One block for each compound: values may come before it.

How the values were obtained:
[1] = target: T1, Nuclear receptor subfamily 1 group I member 2 (Homo sapiens, UniProt O75469); test: Transactivation of PXR in human HepG2 cells by receptor transactivation assay; assay type: ADME, cell-based
T1 sequence (O75469 whole entry): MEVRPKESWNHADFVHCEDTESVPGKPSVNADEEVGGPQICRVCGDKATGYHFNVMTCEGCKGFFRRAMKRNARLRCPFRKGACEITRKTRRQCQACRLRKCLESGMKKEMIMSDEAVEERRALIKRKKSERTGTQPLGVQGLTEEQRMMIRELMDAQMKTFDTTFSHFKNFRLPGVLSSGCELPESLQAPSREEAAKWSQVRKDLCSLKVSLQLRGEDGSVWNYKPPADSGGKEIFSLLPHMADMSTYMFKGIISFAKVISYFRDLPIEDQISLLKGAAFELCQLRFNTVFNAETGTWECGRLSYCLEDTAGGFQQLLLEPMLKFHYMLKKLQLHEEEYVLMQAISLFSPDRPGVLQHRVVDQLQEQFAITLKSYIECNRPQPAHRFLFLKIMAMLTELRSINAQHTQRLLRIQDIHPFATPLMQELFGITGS

[2] = target: T2, Oxysterols receptor LXR-alpha (Homo sapiens, UniProt Q13133); test: Agonist activity at GAL4-tagged human LXRalpha assessed as receptor activation expressed in African green monkey CV1 cells by luciferase reporter gene assay; assay type: cell-based
T2 sequence (Q13133 whole entry): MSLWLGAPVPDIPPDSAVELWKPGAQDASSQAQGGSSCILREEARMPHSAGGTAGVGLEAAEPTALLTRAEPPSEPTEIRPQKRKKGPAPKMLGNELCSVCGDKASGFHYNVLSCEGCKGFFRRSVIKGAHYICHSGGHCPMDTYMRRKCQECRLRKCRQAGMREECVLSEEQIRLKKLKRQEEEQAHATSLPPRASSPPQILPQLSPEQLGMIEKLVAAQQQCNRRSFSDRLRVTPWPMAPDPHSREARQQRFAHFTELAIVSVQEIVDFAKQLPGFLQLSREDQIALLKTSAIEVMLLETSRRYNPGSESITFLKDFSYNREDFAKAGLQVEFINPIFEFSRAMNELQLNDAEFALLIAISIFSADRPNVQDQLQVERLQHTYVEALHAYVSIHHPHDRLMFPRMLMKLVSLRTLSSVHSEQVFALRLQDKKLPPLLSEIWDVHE

[3] = target: T1, Nuclear receptor subfamily 1 group I member 2; test: (§1) Transactivation of PXR in human HepG2 cells by receptor transactivation assay relative to untreated control; assay type: ADME, cell-based; details: hepg2
[4] = Stability in mouse liver microsomes assessed as parent compound remaining incubated for 10 mins; assay type: ADME, microsome
[5] = Stability in human liver microsomes assessed as parent compound remaining incubated for 10 mins; assay type: ADME, microsome; details: for Stability: microsomes, 10 min
[6] = target: T3, Oxysterols receptor LXR-beta (Homo sapiens, UniProt P55055); test: Agonist activity at GAL4-tagged human LXRbeta assessed as receptor activation expressed in African green monkey CV1 cells by luciferase reporter gene assay; assay type: cell-based
T3 sequence (P55055 whole entry): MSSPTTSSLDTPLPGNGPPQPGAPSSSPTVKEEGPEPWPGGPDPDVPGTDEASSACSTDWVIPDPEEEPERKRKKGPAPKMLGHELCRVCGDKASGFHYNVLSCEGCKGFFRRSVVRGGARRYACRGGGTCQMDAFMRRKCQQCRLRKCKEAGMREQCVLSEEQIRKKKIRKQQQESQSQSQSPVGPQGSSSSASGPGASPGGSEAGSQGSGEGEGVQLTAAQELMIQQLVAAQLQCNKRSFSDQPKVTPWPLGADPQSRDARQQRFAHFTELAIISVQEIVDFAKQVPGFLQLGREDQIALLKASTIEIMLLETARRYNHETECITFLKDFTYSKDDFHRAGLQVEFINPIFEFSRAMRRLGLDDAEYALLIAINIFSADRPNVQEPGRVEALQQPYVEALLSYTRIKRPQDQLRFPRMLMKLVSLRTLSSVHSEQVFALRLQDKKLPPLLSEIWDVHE

[7] = target: T4, Nuclear receptor ROR-gamma (Homo sapiens, UniProt P51449); test: Agonist activity at Gal4-tagged human RORgammat ligand binding domain expressed in human Jurkat cells by native IL17 promoter driven luciferase reporter gene assay; assay type: cell-based
T4 sequence (P51449 whole entry): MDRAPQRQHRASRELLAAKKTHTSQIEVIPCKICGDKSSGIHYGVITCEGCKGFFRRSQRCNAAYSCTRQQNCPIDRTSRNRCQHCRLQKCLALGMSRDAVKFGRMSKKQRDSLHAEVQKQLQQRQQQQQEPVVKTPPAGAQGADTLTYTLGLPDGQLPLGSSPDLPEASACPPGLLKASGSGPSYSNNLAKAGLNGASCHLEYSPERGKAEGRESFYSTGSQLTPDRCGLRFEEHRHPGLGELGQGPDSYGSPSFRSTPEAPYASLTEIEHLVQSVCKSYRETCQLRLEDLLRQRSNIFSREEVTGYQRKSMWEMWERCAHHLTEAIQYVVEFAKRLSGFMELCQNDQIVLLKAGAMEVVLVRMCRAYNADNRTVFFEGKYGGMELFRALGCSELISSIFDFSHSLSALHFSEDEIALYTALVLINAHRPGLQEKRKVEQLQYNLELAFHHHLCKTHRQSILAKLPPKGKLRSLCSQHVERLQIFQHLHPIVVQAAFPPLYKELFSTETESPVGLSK

[8] = target: T5, Nuclear receptor ROR-beta (Homo sapiens, UniProt Q92753); test: Inverse agonist activity at Gal4-tagged human RORbeta ligand binding domain expressed in human Jurkat cells by native IL17 promoter driven luciferase reporter gene assay; assay type: cell-based
T5 sequence (Q92753 whole entry): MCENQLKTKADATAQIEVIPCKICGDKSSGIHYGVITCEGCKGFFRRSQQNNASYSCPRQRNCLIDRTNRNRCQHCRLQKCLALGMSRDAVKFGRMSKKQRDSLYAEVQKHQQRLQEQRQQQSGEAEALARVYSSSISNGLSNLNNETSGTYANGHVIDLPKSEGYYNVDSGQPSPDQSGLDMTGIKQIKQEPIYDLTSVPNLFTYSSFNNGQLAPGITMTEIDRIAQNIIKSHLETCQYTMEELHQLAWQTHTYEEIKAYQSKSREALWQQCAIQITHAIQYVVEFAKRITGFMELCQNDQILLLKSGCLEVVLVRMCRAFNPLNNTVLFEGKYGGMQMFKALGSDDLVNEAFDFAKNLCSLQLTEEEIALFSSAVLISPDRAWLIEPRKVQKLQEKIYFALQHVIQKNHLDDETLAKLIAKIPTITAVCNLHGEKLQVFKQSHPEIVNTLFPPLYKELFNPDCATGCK

PXR (NR1I2) = target: T6, PXR (NR1I2) (Homo sapiens, UniProt O75469); test: as §1; assay type: ADME, cell-based; details: HepG2 cells, read-out: %max
T6 sequence (O75469 whole entry): T1 sequence (O75469 whole entry)

[9] = target: T5, Nuclear receptor ROR-beta; test: Agonist activity at Gal4-tagged human RORbeta ligand binding domain expressed in human Jurkat cells by native IL17 promoter driven luciferase reporter gene assay; assay type: cell-based
[10] = target: T7, Nuclear receptor ROR-alpha (Homo sapiens, UniProt P35398); test: Inverse agonist activity at Gal4-tagged human RORalpha ligand binding domain expressed in human Jurkat cells by native IL17 promoter driven luciferase reporter gene assay; assay type: cell-based
T7 sequence (P35398 whole entry): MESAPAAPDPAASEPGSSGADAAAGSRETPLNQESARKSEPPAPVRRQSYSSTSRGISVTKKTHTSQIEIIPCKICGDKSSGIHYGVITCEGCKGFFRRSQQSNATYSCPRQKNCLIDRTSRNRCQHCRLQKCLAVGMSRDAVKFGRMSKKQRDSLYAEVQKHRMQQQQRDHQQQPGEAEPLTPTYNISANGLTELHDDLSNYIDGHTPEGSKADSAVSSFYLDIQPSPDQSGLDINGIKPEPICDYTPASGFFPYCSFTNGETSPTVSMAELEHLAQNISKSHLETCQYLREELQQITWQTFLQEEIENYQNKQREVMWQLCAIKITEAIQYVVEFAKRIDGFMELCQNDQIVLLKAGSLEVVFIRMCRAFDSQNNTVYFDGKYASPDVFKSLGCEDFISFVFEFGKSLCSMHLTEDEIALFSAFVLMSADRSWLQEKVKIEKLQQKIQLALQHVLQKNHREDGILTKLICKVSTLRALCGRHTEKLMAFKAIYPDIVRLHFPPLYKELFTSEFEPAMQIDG

[11] = target: T7, Nuclear receptor ROR-alpha; test: Agonist activity at Gal4-tagged human RORalpha ligand binding domain expressed in human Jurkat cells by native IL17 promoter driven luciferase reporter gene assay; assay type: cell-based
[12] = target: T4, Nuclear receptor ROR-gamma; test: Inverse agonist activity at Gal4-tagged human RORgammat ligand binding domain expressed in human Jurkat cells by native IL17 promoter driven luciferase reporter gene assay; assay type: cell-based
[13] = Drug level in Balb/c mouse at 30 mg/kg, po BID measured at 7.5 hrs on day 1; assay type: ADME, organism-based; details: in vivo, read-out: Drug uptake
[14] = Drug level in Balb/c mouse at 30 mg/kg, po BID measured at 1 hr on day 1; assay type: ADME, organism-based; details: in vivo, read-out: Drug uptake
[15] = Drug level in Balb/c mouse at 100 mg/kg, po BID measured at 23.5 hrs on day 1; assay type: ADME, organism-based; details: in vivo, read-out: Drug uptake
[16] = Drug level in Balb/c mouse at 30 mg/kg, po BID measured at 23.5 hrs on day 1; assay type: ADME, organism-based; details: in vivo, read-out: Drug uptake
[17] = Drug level in Balb/c mouse at 100 mg/kg, po BID measured at 1 hr on day 5; assay type: ADME, organism-based; details: in vivo, read-out: Drug uptake
[18] = Drug level in Balb/c mouse at 100 mg/kg, po BID measured at 7.5 hrs on day 1; assay type: ADME, organism-based; details: in vivo, read-out: Drug uptake
[19] = Drug level in Balb/c mouse at 100 mg/kg, po BID measured at 7.5 hrs on day 5; assay type: ADME, organism-based; details: in vivo, read-out: Drug uptake
Mus musculus [20] = test: Inhibition of IL-2/IL-23 induced IL-17 production in C57BL/6 mouse challenged 3 times with IL-2/IL-23 (at 0, 7 and 23 hrs) after IL-2 alone priming (-24 hrs) at 50 mg/kg, po dosed 30 mins prior to each IL-2/IL-23 co-administration and measured after 7 hrs post last IL-2/IL-23 challenge; assay type: functional; details: C57BL/6, po
[21] = Drug level in Balb/c mouse at 100 mg/kg, po BID measured at 1 hr on day 1; assay type: ADME, organism-based; details: in vivo, read-out: Drug uptake
[22] = Drug level in Balb/c mouse at 30 mg/kg, po BID measured at 1 hr on day 5; assay type: ADME, organism-based; details: in vivo, read-out: Drug uptake
Mus musculus [23] = test: Inhibition of IL-2/IL-23 induced IL-17 production in C57BL/6 mouse challenged 3 times with IL-2/IL-23 (at 0, 7 and 23 hrs) after IL-2 alone priming (-24 hrs) at 25 mg/kg, po dosed 30 mins prior to each IL-2/IL-23 co-administration and measured after 7 hrs post last IL-2/IL-23 challenge; assay type: functional; details: C57BL/6, po
[24] = Drug level in Balb/c mouse at 30 mg/kg, po BID measured at 7.5 hrs on day 5; assay type: ADME, organism-based; details: in vivo, read-out: Drug uptake
[25] = Drug level in Balb/c mouse at 30 mg/kg, po BID measured at 23.5 hrs on day 5; assay type: ADME, organism-based; details: in vivo, read-out: Drug uptake
[26] = liver microsomes, read-out: Stability

- pEC50 [1]: 5.87
- pEC50 [2]: 6.50
- %max [3]: 70%
- Stability ([4]; microsomes, 10 min): 1%
- Stability [5]: 2%
- pEC50 [6]: 5.43
SMILES: CC(C)(O)CNC(=O)CC1CSc2cc(C(O)(C(F)(F)F)C(F)(F)F)ccc2N1S(=O)(=O)c1ccc(F)cc1 (stereo in doubt; 31)

- pEC50 [7]: < 5.40
- pEC50 [8]: < 5.70
- pEC50 [1]: 7.70
- pEC50 [2]: 6.72
- Emax (PXR (NR1I2)): 100%
- pEC50 [9]: < 5.40
- pEC50 [10]: < 5.70
- pEC50 [11]: < 5.40
- pEC50 [6]: 6.73
- pEC50 [12]: 6.78
SMILES: O=S(=O)(c1ccc(F)cc1)N1CCSc2cc(C(O)(C(F)(F)F)C(F)(F)F)ccc21

- pEC50 [1]: 5.96
- pEC50 [2]: < 5.12
- %max [3]: 90%
- Stability [5]: 5%
- pEC50 [6]: < 5.12
SMILES: CC(C)(O)CNC(=O)CC1CSc2cc(C(O)(C(F)(F)F)C(F)(F)F)ccc2N1S(=O)(=O)c1ccc(F)cc1 (stereo in doubt; 30)

- concentration at 7.5 h [13]: 134 nM
- pEC50 [1]: 5.70
- pEC50 [2]: < 5.12
- concentration at 1 h [14]: 3490 nM
- concentration at 23.5 h [15]: 19 nM
- Emax (PXR (NR1I2)): 100%
- remaining at 10 min [4, 26]: 62%
- concentration at 23.5 h [16]: 5 nM
- concentration at 1 h [17]: 2830 nM
- concentration at 7.5 h [18]: 2460 nM
- concentration at 7.5 h [19]: 61 nM
- concentration at 1 h [21]: 13900 nM
- concentration at 1 h [22]: 555 nM
- remaining at 10 min [5, 26]: 56%
- pEC50 [6]: < 5.12
- concentration at 7.5 h [24]: 21 nM
- concentration at 23.5 h [25]: 5 nM
SMILES: CC(C)(O)[C@H](F)CNC(=O)C[C@@H]1CCc2cc(C(O)(C(F)(F)F)C(F)(F)F)ccc2N1S(=O)(=O)c1ccc(F)cc1
- inhibition in vivo at 50 mg/kg (Mus musculus [20]): 98%
- inhibition in vivo at 25 mg/kg (Mus musculus [23]): 74%
